{
  "source": "BindingDB's records for doi:10.1021/jm900130m",
  "about": "(Universita Del Piemonte Orientale, 2009)",
  "key": {"[1]": {"molecular_target": "Transient receptor potential cation channel subfamily V member 1 (Homo sapiens, UniProt Q8NER1)", "sequence (Q8NER1 whole entry)": "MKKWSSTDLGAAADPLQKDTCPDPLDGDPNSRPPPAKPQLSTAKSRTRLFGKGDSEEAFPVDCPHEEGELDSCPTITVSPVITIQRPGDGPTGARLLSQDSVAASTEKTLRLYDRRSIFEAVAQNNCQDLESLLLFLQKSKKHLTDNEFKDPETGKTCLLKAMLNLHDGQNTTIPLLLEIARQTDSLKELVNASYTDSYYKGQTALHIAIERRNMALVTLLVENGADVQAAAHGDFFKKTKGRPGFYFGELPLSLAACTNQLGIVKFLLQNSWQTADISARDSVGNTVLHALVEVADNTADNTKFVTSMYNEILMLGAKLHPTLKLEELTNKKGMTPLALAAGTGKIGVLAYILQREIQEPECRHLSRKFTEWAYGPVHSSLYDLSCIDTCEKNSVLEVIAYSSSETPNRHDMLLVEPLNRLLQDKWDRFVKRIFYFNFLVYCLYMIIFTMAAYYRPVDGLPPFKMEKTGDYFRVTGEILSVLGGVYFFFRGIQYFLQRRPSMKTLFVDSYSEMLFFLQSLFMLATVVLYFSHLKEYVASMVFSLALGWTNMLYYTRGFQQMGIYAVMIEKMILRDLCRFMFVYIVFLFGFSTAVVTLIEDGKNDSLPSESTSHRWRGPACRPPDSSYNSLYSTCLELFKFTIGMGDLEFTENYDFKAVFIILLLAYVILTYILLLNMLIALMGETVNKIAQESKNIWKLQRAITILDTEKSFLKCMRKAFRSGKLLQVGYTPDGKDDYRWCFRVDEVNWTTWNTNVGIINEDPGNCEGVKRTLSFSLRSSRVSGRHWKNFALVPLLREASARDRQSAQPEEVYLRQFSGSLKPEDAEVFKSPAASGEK", "assay": "TRPV1 Channel Activity Assay", "description": "The effect of the substances on Ca2+ influx was determined by using HEK-293 cells stably overexpressing recombinant human TRPV1 cDNA. The cells were loaded with Fluo-4, a selective intracellular fluorescent probe for Ca2+. Experiments were carried out by measuring cell fluorescence before and after the addition of the test compounds at various concentrations. Agonist activity was determined in comparison to the maximum Ca2+ influx due to the application of 4 uM ionomycin. EC50 values were determined as the concentration of test substances required to produce half-maximal increases in [Ca2+]i. All determinations were at least performed in triplicate. Curve fitting (sigmoidal dose-response variable slope) and parameter estimation were performed with GraphPad Prism (GraphPad Software Inc., San Diego, CA)."}, "Cannabinoid receptor 2": {"molecular_target": "Cannabinoid receptor 2 (Homo sapiens, UniProt P34972)", "sequence (P34972 whole entry)": "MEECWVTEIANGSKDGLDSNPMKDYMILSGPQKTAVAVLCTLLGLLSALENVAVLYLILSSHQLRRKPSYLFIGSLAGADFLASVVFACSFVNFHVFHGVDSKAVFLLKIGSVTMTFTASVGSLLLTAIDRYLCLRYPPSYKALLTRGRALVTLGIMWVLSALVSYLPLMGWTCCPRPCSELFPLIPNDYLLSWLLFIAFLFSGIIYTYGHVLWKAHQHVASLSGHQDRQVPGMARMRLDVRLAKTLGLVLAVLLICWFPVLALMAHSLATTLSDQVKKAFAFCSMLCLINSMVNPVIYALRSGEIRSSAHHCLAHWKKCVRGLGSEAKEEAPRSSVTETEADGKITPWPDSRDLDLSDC", "assay": "CB Receptor Radioligand Binding Assay (Ki)", "description": "IC50 values for test compounds were determined from nonlinear regression analysis of data collected from ligand displacement experiments. The inhibition constant (Ki) was calculated from IC50 value by the Cheng and Prusoff equation."}},
  "data": [
    {"smiles": "CCCCCCCC/C=C\\CCCCCCCC(=O)N[C@H]1C[C@H]1O", "note": "[cyclopropanolamide, 14b]", "values": [
      {"measurement": "EC50", "setting": "[1]", "value": 180, "unit": "nM"},
      {"measurement": "Ki", "setting": "Cannabinoid receptor 2", "value": 1630, "unit": "nM"}
    ]},
    {"smiles": "CCCCCCCC/C=C\\CCCCCCCC(=O)N[C@H]1C[C@@H]1O", "note": "[cyclopropanolamide, 11b]", "values": [
      {"measurement": "EC50", "setting": "[1]", "value": 19, "unit": "nM"},
      {"measurement": "Ki", "setting": "Cannabinoid receptor 2", "value": 2420, "unit": "nM"}
    ]}
  ]
}
